Results reported in patent publication US4529603A, “Pharmaceutical composition and method for treatment of psychomotor excitement” (priority 1983, dated 1985).
Counter-ions that a name gives are not always drawn.

Columns and labels:
[1] = system: quantity of spontaneous movement of mice; assay: Spontaneous movement of mice pretreated with PIH (Animex); format: in vivo
Description: Three mice as one group were put in a movement measuring box of Animex and quantity of spontaneous movements of the mice were measured at given intervals of time.
Thereafter, they gradually became calm and crouched after about 30-40 minutes resulting in much decrease in their spontaneous moving quantity. β-phenylisopropylhydrazine hydrochloride (Catron, trade name) (referred to as "PIH" hereinafter) which is a monoamine oxidase inhibitor (MAOI) was intraperitoneally administered to the mice in an amount of 50 mg/kg.
Separately, 200 mg/kg of DL-erythro-DOPS was intraperitoneally injected to the mice and the effects thereof were examined.
In FIG. 1 the axis of ordinates indicates the quantity of movement (counts/5 min.) and the axis of abscissae indicates the time (minute) from the beginning of measurement of the quantity of spontaneous movement which was after 30 minutes from administration of DL-erythro-DOPS.

[2] = system: Amine content in the brain; assay: Amine content in the brain of PIH administered mice; format: in vivo; conditions: PIH 50 mg/kg i.p., 17 hours, mean of three mice ±SD
Description: A physiological saline or PIH (50 mg/kg) was intraperitoneally injected to mice and content of amine in the brain was measured after 17 hours.
The measurement was substantially in accordance with the method of Ogasawara et al (J. Chromatography 180, 119). The content was expressed as ng/g wet weight and shown as mean value of the three mice ±SD.

[3] = system: Amine content in the brain; assay: Amine content in the brain of mice administered with erythro-DOPS; format: in vivo; conditions: for Dopamine content in the brain / Noradrenaline (NA) content in the brain / Serotonin content in the brain: mean of three mice ±SD
Description: PIH (50 mg/kg) was previously administered to mice and after lapse of 17 hours, physiological saline or DL-erythro-DOPS (200 mg/kg) was intraperitoneally injected to the mice.
Amine content in the brain was measured after a lapse of 30 minutes from the injection.
The content was expressed as ng/g wet weight and shown as mean value of the three mice±SD.

[4] = system: ptosis induced by tetrabenazine; assay: Ptosis induced by tetrabenazine; format: in vivo; conditions: for Ptosis score: tetrabenazine 40 mg/kg i.p., 3 hrs, Mean ± S.E., N 6; for effects of erythro-DOPS on combination use of a peripheral decarboxylase inhibitor: combination with erythro-DOPS
Description: L-threo-DOPS (100 mg/kg and 200 mg/kg) was intraperitoneally injected at the same time with the intraperitoneal injection of tetrabenazine (40 mg/kg) and at 1 hr. after the intraperitoneal injection of benserazide or carbidopa.
The score of ptosis was measured by the method of Fukushima et al. (Arch. Int. Pharmacodyn. Therp. 229 163 1977) at 3 hrs. after the injection of tetrabenazine.

[5] = system: aromatic L-amino acid decarboxylase; conditions: decarboxylation by aromatic L-amino acid decarboxylase; cited from earlier work
[6] = animal experiments; U.S. Pat. No. 3,920,728; cited from earlier work
harmaline induced tremor = conditions: Japanese Patent Publication No. 125630/1977; cited from earlier work
orthostatic hypotension = conditions: U.S. Pat. No. 4,330,558; cited from earlier work
[7] = system: freezing phenomenon in parkinson's disease; conditions: UK Patent Publication No. 2106388; cited from earlier work
[8] = major tranquilizers; cited from earlier work
mania = conditions: cited from earlier work
[9] = system: quantity of spontaneous movement of mice increased by administration of methamphetamine; assay: Spontaneous movement of mice with methamphetamine; format: in vivo
Description: The same experimental system of measuring spontaneous movement quantity of mice as used in Experimental Example 1 was employed in this Example.
In FIG. 2, the axis of ordinates indicates the quantity of spontaneous movement and the axis of abscissa indicates the time (minute) when the time at which the administration of methamphetamine (1.4 mg/kg) alone or methamphetamine with DL-erythro-DOPS (200 mg/kg) was carried out was taken as zero point.

[10] = system: quantity of spontaneous movement of mice administered with tranylcypromine; assay: Spontaneous movement of mice administered with tranylcypromine; format: in vivo
Description: The same experimental system of measuring the quantity of spontaneous movement of mice as used in Experimental Example 1 was used in this Example.
In FIG. 3, the axis of ordinates indicates the quantity of spontaneous movement and the axis of abscissae indicates the lapse of time (minute) and the arrows indicate the time when administration was conducted.

[11] = continuously in blood; cited from earlier work
[12] = Acute oral toxicity (LD50); conditions: mouse, in vivo
[13] = PIH 50 mg/kg i.p., 16 hours after administration
[14] = PIH 50 mg/kg + physiological saline, 30 minutes after injection
[15] = DL-erythro-DOPS 200 mg/kg i.p. together with methamphetamine 1.4 mg/kg
[16] = DL-erythro-DOPS given 180 minutes after tranylcypromine
[17] = PIH 50 mg/kg 17 hours before + DL-erythro-DOPS 200 mg/kg i.p., 30 minutes

Compound: CC(Cc1ccccc1)NN (stereo not drawn) [PIH, β-phenylisopropylhydrazine hydrochloride]
- quantity of spontaneous movement [1, 13]: tendencies of increase in the spontaneous movement quantity
- time required before the mice became calm [1, 13]: increase in time required before the mice became calm
- Dopamine content in the brain ([2]; **: P <0.05): 1026 ± 122 ng/g wet weight
- Noradrenaline (NA) content in the brain ([2]; *: P <0.005): 1085 ± 79 ng/g wet weight
- Serotonin content in the brain ([2]; *: P <0.005): 1260 ± 39 ng/g wet weight
- Dopamine content in the brain [3, 14]: 941 ± 56 ng/g wet weight
- Noradrenaline (NA) content in the brain [3, 14]: 832 ± 88 ng/g wet weight
- Serotonin content in the brain [3, 14]: 942 ± 133 ng/g wet weight

Compound: N[C@H](C(=O)O)[C@@H](O)c1ccc(O)c(O)c1 (racemic) [L-erythro-DOPS, L or DL-erythro-3-(3,4-dihydroxyphenyl)serine]
- Ptosis score ([4]; 100 mg/kg i.p. alone): 2.0 ± 0.4
- Ptosis score ([4]; 200 mg/kg i.p. alone): 2.3 ± 0.5
- conversion to noradrenaline in vivo [5]: to d-NA

Compound: N[C@H](C(=O)O)C(O)c1ccc(O)c(O)c1 (stereo partly drawn) [L-DOPS]
- conversion to noradrenaline in vivo [5]: converted to noradrenaline

Compound: N[C@H](C(=O)O)[C@H](O)c1ccc(O)c(O)c1 (relative stereo) [threo-DOPS]
- antihypertensive or antidepressive effect [6]: has an antihypertensive or antidepressive effect
- effect on harmaline induced tremor (harmaline induced tremor): inhibitory effect
- treatment of orthostatic hypotension (orthostatic hypotension): clinically effective
- treatment of freezing phenomenon in parkinson's disease [7]: clinically effective

Compound: COc1ccc2c(c1)N(C[C@H](C)CN(C)C)c1ccccc1S2 [levomepromazine]
- tranquilizing effects [8]: strong tranquilizing effects

Compound: NC(=O)N1c2ccccc2C=Cc2ccccc21 [carbamazepine]
- antimanic effect (mania; human, in vivo): has an antimanic effect

Compound: CN(C)CCCN1c2ccccc2Sc2ccc(Cl)cc21 [Chloropromazine]
- tranquilizing effects [8]: strong tranquilizing effects

Compound: C[C@@](Cc1ccc(O)c(O)c1)(NN)C(=O)O [carbidopa]
- effects of erythro-DOPS on combination use of a peripheral decarboxylase inhibitor [4]: significantly enhanced

Compound: N[C@H](C(=O)O)[C@H](O)c1ccc(O)c(O)c1 [L-threo-DOPS]
- conversion to noradrenaline in vivo [5]: converted to l-NA

Compound: CN[C@@H](C)Cc1ccccc1 [methamphetamine]
- quantity of spontaneous movement ([9]; methamphetamine 1.4 mg/kg i.p.): abruptly increased
- time to restoration to nearly the former state ([9]; methamphetamine 1.4 mg/kg i.p.): 2 h
- time after which quantity of spontaneous movement began to decrease ([9]; methamphetamine 1.4 mg/kg i.p., from the injection): 50 min

Compound: N[C@H](C(=O)O)[C@@H](O)c1ccc(O)c(O)c1 (relative stereo) [DL-erythro-DOPS, DL-erythro-3-(3,4-dihydroxyphenyl)serine]
- quantity of spontaneous movement ([1]; DL-erythro-DOPS 200 mg/kg i.p., mice pretreated with PIH (50 mg/kg)): conspicuous decrease in the quantity of spontaneous movement
- action of methamphetamine to increase the quantity of spontaneous movement [9, 15]: retrained
- increase of the quantity of movement [9, 15]: not noticeable
- quantity of movement [10, 16]: began to decrease
- time after which the quantity of movement began to decrease [10, 16]: about 20 minutes
- duration of decrease in quantity of movement ([10]; DL-erythro-DOPS given 180 minutes after tranylcypromine, then returned to original increased state): 30 to 90 min
- Dopamine content in the brain [3, 17]: 895 ± 52 ng/g wet weight
- Serotonin content in the brain [3, 17]: 821 ± 92 ng/g wet weight
- Noradrenaline (NA) content in the brain ([3]; PIH 50 mg/kg 17 hours before + DL-erythro-DOPS 200 mg/kg i.p., 30 minutes, *: P <0.005): 1476 ± 105 ng/g wet weight

Compound: O=C(CCCN1CCC(O)(c2ccc(Cl)cc2)CC1)c1ccc(F)cc1 [haloperidol]
- tranquilizing effects [8]: strong tranquilizing effects

Compound: lithium
- lithium concentration in blood at which lithium poisoning will occur [11]: ≥ 2.0 mEq/l

Compound: N[C@@H]1C[C@H]1c1ccccc1 (relative stereo) [tranylcyromine]
- spontaneous movement ([10]; 50 mg/kg i.p.): gradually increased
- time to maximum spontaneous movement ([10]; 50 mg/kg i.p., after administration, then maintained): 120 min

Compound: NC(CO)C(=O)NNCc1ccc(O)c(O)c1O (stereo not drawn) [benserazide]
- effects of erythro-DOPS on combination use of a peripheral decarboxylase inhibitor [4]: significantly enhanced

Compound: O=C(O)O [lithium carbonate]
- time before a noticeable effect (mania; treatment with lithium carbonate): 3 to 8 days

Compound: N[C@H](C(=O)O)[C@@H](O)c1ccc(O)c(O)c1 (relative stereo) [erythro-DOPS, erythro-3-(3,4-dihydroxyphenyl)serine]
- suppression of psychomotor excitement ([1]; summary of Experimental Examples 1 to 3): suppresses psychomotor excitement
- change of contents of amines in the brain (NA, dopamine, serotonin) ([3]; Experimental Examples 4 and 5): only NA significantly increases
- ptosis induced by tetrabenazine ([4]; administration of erythro-DOPS): enhanced
- antihypertensive or antidepressive effect [6]: has an antihypertensive or antidepressive effect
- Toxicity [12]: extremely low
- LD50 ([12]; po): ≥ 5000 mg/kg
